Data as given in US8653087B2, “Pyrido [5, 4-D] pyrimidines as cell proliferation inhibitors” (Boehringer Ingelheim International GmbH, priority 2008, dated 2014).
pIC50: −log10 of the molar value.

biological target: B-Raf (V600E)-kinase (Homo sapiens (Human), UniProt P15056, V600E); assay: Kinase test B-RAF (V600E); type: biochemical; conditions: B-RAF (V600E) kinase test, 250 μM ATP
How it was run: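 Read-out is DELFIA europium TRF of phospho-MEK (Ser217/221) on biotinylated MEK1 bound to streptavidin plates, IC50 from dose-response. Reaction ran 60 min at RT with 250 μM ATP, after a 24 h RT preincubation of compound with B-Raf (V600E) kinase, 5% DMSO final.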

Sequence of B-Raf (V600E)-kinase (P15056 whole entry V600E): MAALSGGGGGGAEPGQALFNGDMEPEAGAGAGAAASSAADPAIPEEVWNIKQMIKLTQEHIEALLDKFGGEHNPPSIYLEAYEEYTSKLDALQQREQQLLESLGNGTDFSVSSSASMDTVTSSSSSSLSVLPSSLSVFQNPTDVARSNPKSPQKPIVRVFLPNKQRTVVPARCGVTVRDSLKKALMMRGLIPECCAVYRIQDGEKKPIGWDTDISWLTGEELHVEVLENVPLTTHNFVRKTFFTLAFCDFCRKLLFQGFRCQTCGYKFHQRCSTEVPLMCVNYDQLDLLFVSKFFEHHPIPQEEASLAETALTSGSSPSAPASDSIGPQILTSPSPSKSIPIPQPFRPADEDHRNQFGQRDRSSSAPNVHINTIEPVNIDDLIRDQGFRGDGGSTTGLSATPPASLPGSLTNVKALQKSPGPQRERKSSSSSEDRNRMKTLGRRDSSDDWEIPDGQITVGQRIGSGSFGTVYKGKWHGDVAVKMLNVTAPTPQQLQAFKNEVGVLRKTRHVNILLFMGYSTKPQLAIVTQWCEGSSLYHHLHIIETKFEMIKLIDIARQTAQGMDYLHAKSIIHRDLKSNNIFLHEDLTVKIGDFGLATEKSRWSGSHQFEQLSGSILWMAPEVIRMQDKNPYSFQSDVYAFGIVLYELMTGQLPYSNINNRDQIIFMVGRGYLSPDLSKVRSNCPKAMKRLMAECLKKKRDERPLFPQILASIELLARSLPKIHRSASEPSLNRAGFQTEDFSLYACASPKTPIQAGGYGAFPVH

SMILES	pIC50
Cc1ccc(C(=O)n2nc(C(C)(C)C)cc2N)cc1Nc1ncnc2cnc(NC3CCOC3)nc12 (centres unmarked) [III-354]	7.70
Cc1ccc(C(=O)Nc2cc(C(C)(C)C)on2)cc1Nc1ncnc2cnc(N3CC(F)(F)C3)nc12 [III-366]	8.22
Cc1ccc(C(=O)Nc2cc(C(C)(C)C)on2)cc1Nc1ncnc2cnc(N3C[C@@H](C)O[C@@H](C)C3)nc12 [III-368]	7.85
Cc1cc(C(=O)Nc2cc(C(C)(C)C)nn2C)cc(Nc2ncnc3cnc(N4CCOCC4)nc23)c1C [III-372]	8.30
Cc1cc(C(=O)Nc2cc(C(C)(C)C)nn2C)cc(Nc2ncnc3cnc(N4CCN(C)CC4)nc23)c1C [III-373]	8.10
Cn1nc(C(C)(C)C)cc1NC(=O)c1cc(Cl)cc(Nc2ncnc3cnc(N4CCCC4)nc23)c1Cl [III-374]	5.70
Cn1nc(C(C)(C)C)cc1NC(=O)c1cc(Cl)cc(Nc2ncnc3cnc(N4CCOCC4)nc23)c1Cl [III-375]	5.70
Cn1nc(C(C)(C)C)cc1NC(=O)c1cc(Cl)cc(Nc2ncnc3cnc(N4CCOCC4)nc23)c1 [III-376]	8.15
Cn1nc(C(C)(C)C)cc1NC(=O)c1cc(Cl)cc(Nc2ncnc3cnc(N4CCCC4)nc23)c1 [III-377]	8.40
CN1CCN(c2ncc3ncnc(Nc4cc(Cl)cc(C(=O)Nc5cc(C(C)(C)C)nn5C)c4)c3n2)CC1 [III-378]	8.10
CN(C)C1CCN(c2ncc3ncnc(Nc4cc(Cl)cc(C(=O)Nc5cc(C(C)(C)C)nn5C)c4)c3n2)C1 (centres unmarked) [III-379]	8.22
O=C(NC1CCOC1)c1ccc(F)c(Nc2ncnc3cnc(NC4CCOC4)nc23)c1 (centres unmarked) [III-380]	5.85
CC(C)(C#N)c1cccc(NC(=O)c2ccc(F)c(Nc3ncnc4cnc(N5CCOCC5)nc34)c2)c1 [III-383]	8.40
COCCN1CCN(c2ncc3ncnc(Nc4cc(C(=O)Nc5cc(C(C)(C)C)on5)ccc4F)c3n2)CC1 [III-395]	8.40
CC(C)(C)c1cc(NC(=O)c2ccc(F)c(Nc3ncnc4cnc(N5CCN(CC6CC6)CC5)nc34)c2)no1 [III-397]	8.40
CN1CCC(N(C)c2ncc3ncnc(Nc4cc(C(=O)Nc5cc(C(C)(C)C)on5)ccc4F)c3n2)C1 (centres unmarked) [III-400]	8.40
CN(C)C1CCN(c2ncc3ncnc(Nc4cc(C(=O)Nc5cc(C(C)(C)C)on5)ccc4F)c3n2)CC1 [III-401]	8.52
COc1ccc(NC(=O)c2ccc(F)c(Nc3ncnc4cnc(N5CCN(C(C)C)CC5)nc34)c2)cc1C(F)(F)F [III-403]	8.52
COc1ccc(NC(=O)c2ccc(F)c(Nc3ncnc4cnc(N5CCN(CC6CC6)CC5)nc34)c2)cc1C(F)(F)F [III-404]	8.22
CCN1CCN(c2ncc3ncnc(Nc4cc(C(=O)Nc5ccc(OC)c(C(F)(F)F)c5)ccc4F)c3n2)CC1 [III-405]	8.30
Cc1ccc(C(=O)Nc2cc(N(C)CCN(C)C)cc(C(F)(F)F)c2)cc1Nc1ncnc2cnc(N(C)CC3CCCCO3)nc12 (centres unmarked) [III-407]	8.00
CCN1CCN(c2cc(NC(=O)c3ccc(C)c(Nc4ncnc5cnc(N(C)CC6CCCCO6)nc45)c3)cc(C(F)(F)F)c2)CC1 (centres unmarked) [III-408]	7.60
COc1ccc(NC(=O)c2ccc(C)c(Nc3ncnc4cnc(N(C)CC5CCCCO5)nc34)c2)cc1C(F)(F)F (centres unmarked) [III-409]	8.05
COc1ccc(NC(=O)c2ccc(C)c(Nc3ncnc4cnc(N5CC[C@H](F)C5)nc34)c2)cc1C(F)(F)F [III-411]	8.52
Cc1ccc(C(=O)Nc2cc(C(C)(C)C)on2)cc1Nc1ncnc2cnc(N3CC[C@H](F)C3)nc12 [III-412]	8.30
Cc1ccc(C(=O)Nc2cc(C(C)(C)C)nn2C)cc1Nc1ncnc2cnc(N3CCN(CC4CCN(C)CC4)CC3)nc12 [III-414]	8.15
COc1ccc(C(C)(C)C)cc1NC(=O)c1ccc(C)c(Nc2ncnc3cnc(N4CCN(CC5CCN(C)CC5)CC4)nc23)c1 [III-415]	8.52
COc1ccc(NC(=O)c2ccc(C)c(Nc3ncnc4cnc(N5CCN(CC6CCN(C)CC6)CC5)nc34)c2)cc1C(F)(F)F [III-419]	9.00
COCCN1CCN(c2ncc3ncnc(Nc4cc(C(=O)Nc5cc(C(C)(C)C)nn5C)ccc4C)c3n2)CC1 [III-421]	7.92

Now from value to compound:

pIC50	SMILES
9.00	COc1ccc(C(F)(F)F)cc1NC(=O)c1ccc(C)c(Nc2ncnc3cnc(NC4CCOC4)nc23)c1 (centres unmarked) [III-347]
> 9.00	Cc1ccc(C(=O)Nc2cc(C(C)(C)C)nn2C)cc1Nc1ncnc2cnc(NC3CCOC3)nc12 (centres unmarked) [III-348]
> 9.00	Cc1ccc(C(=O)Nc2cccc(C(F)(F)F)c2)cc1Nc1ncnc2cnc(NC3CCOC3)nc12 (centres unmarked) [III-349]
> 9.00	Cc1ccc(C(=O)Nc2cccc(C(C)(C)C)c2)cc1Nc1ncnc2cnc(NC3CCOC3)nc12 (centres unmarked) [III-350]
> 9.00	CCN1CCN(c2cc(NC(=O)c3ccc(C)c(Nc4ncnc5cnc(NC6CCOC6)nc45)c3)cc(C(F)(F)F)c2)CC1 (centres unmarked) [III-351]
> 9.00	Cc1ccc(C(=O)Nc2cc(C(C)(C)C)n[nH]2)cc1Nc1ncnc2cnc(NC3CCOC3)nc12 (centres unmarked) [III-353]
> 9.00	Cc1ccc(C(=O)Nc2cc(C(F)(F)F)ccn2)cc1Nc1ncnc2cnc(NC3CCOC3)nc12 (centres unmarked) [III-355]
> 9.00	COc1ccc(NC(=O)c2ccc(C)c(Nc3ncnc4cnc(NC5CCOC5)nc34)c2)cc1C(F)(F)F (centres unmarked) [III-356]
> 9.00	Cc1ccc(C(=O)Nc2cc(C(C)(C)C)on2)cc1Nc1ncnc2cnc(NC3CCOC3)nc12 (centres unmarked) [III-357]
9.00	COCCNc1ncc2ncnc(Nc3cc(C(=O)Nc4cc(C(C)(C)C)on4)ccc3C)c2n1 [III-358]
8.70	Cc1ccc(C(=O)Nc2cc(C(C)(C)C)on2)cc1Nc1ncnc2cnc(NCC3CCOC3)nc12 (centres unmarked) [III-359]
8.52	Cc1ccc(C(=O)Nc2cc(C(C)(C)C)on2)cc1Nc1ncnc2cnc(N(C)CC3CCOC3)nc12 (centres unmarked) [III-360]
8.70	Cc1ccc(C(=O)Nc2cc(C(C)(C)C)on2)cc1Nc1ncnc2cnc(NCC3CCCCO3)nc12 (centres unmarked) [III-361]
8.52	COC[C@@H]1CCCN1c1ncc2ncnc(Nc3cc(C(=O)Nc4cc(C(C)(C)C)on4)ccc3C)c2n1 [III-362]
> 9.00	Cc1ccc(C(=O)Nc2cc(C(C)(C)C)on2)cc1Nc1ncnc2cnc(N3CCC[C@H]3CO)nc12 [III-363]
9.00	Cc1ccc(C(=O)Nc2cc(C(C)(C)C)on2)cc1Nc1ncnc2cnc(N(C)C3CCOC3)nc12 (centres unmarked) [III-365]
8.70	Cc1cn(-c2ncc3ncnc(Nc4cc(C(=O)Nc5cc(C(C)(C)C)on5)ccc4C)c3n2)cn1 [III-367]
8.70	Cc1ccc(C(=O)Nc2cc(C(C)(C)C)on2)cc1Nc1ncnc2cnc(N3CCCOCC3)nc12 [III-369]
9.00	Cc1ccc(C(=O)Nc2cc(C(C)(C)C)on2)cc1Nc1ncnc2cnc(N3CCN(CCN4CCOCC4)CC3)nc12 [III-370]
8.52	CC(C)(C)c1cc(NC(=O)c2ccc(F)c(Nc3ncnc4cnc(NC5CCOC5)nc34)c2)no1 (centres unmarked) [III-381]
> 9.00	CN1CCN(c2cc(NC(=O)c3ccc(F)c(Nc4ncnc5cnc(N6CCOCC6)nc45)c3)cc(C(F)(F)F)c2)CC1 [III-382]

pIC50	SMILES
8.70	Cn1nc(C(C)(C)C)cc1NC(=O)c1ccc(F)c(Nc2ncnc3cnc(N4CCOCC4)nc23)c1 [III-384]
8.70	CN1CCN(c2cc(NC(=O)c3ccc(F)c(Nc4ncnc5cnc(N6CCOCC6)nc45)c3)cc(C(F)(F)F)c2F)CC1 [III-385]
9.00	CC(C)(C#N)c1cccc(NC(=O)c2ccc(F)c(Nc3ncnc4cnc(NC5CCOC5)nc34)c2)c1 (centres unmarked) [III-386]
8.70	Cn1nc(C(C)(C)C)cc1NC(=O)c1ccc(F)c(Nc2ncnc3cnc(NC4CCOC4)nc23)c1 (centres unmarked) [III-387]
> 9.00	CN1CCN(c2cc(NC(=O)c3ccc(F)c(Nc4ncnc5cnc(NC6CCOC6)nc45)c3)cc(C(F)(F)F)c2)CC1 (centres unmarked) [III-388]
> 9.00	CN1CCN(c2cc(NC(=O)c3ccc(F)c(Nc4ncnc5cnc(NC6CCOC6)nc45)c3)cc(C(F)(F)F)c2F)CC1 (centres unmarked) [III-389]
> 9.00	COc1ccc(NC(=O)c2ccc(F)c(Nc3ncnc4cnc(NC5CCOC5)nc34)c2)cc1C(F)(F)F (centres unmarked) [III-390]
9.00	CC(C)(C)c1cc(NC(=O)c2ccc(F)c(Nc3ncnc4cnc(N5CCOCC5)nc34)c2)[nH]n1 [III-391]
8.52	CC(C)(C)c1cc(NC(=O)c2ccc(F)c(Nc3ncnc4cnc(NC5CCOC5)nc34)c2)[nH]n1 (centres unmarked) [III-392]
9.00	O=C(Nc1cc(C(F)(F)F)ccn1)c1ccc(F)c(Nc2ncnc3cnc(N4CCOCC4)nc23)c1 [III-393]
9.00	CN1CCC(CN2CCN(c3ncc4ncnc(Nc5cc(C(=O)Nc6cc(C(C)(C)C)on6)ccc5F)c4n3)CC2)CC1 [III-394]
8.52	CC(C)N1CCN(c2ncc3ncnc(Nc4cc(C(=O)Nc5cc(C(C)(C)C)on5)ccc4F)c3n2)CC1 [III-396]
9.00	CCN1CCN(c2ncc3ncnc(Nc4cc(C(=O)Nc5cc(C(C)(C)C)on5)ccc4F)c3n2)CC1 [III-398]
8.70	CN(C)C1CCN(c2ncc3ncnc(Nc4cc(C(=O)Nc5cc(C(C)(C)C)on5)ccc4F)c3n2)C1 (centres unmarked) [III-399]
8.70	COCCN1CCN(c2ncc3ncnc(Nc4cc(C(=O)Nc5ccc(OC)c(C(F)(F)F)c5)ccc4F)c3n2)CC1 [III-402]
9.00	Cc1ccc(C(=O)Nc2cccc(OC(F)(F)F)c2)cc1Nc1ncnc2cnc(N3CCOCC3)nc12 [III-410]
> 9.00	COc1ccc(C(F)(F)F)cc1NC(=O)c1ccc(C)c(Nc2ncnc3cnc(N4CCN(CC5CCN(C)CC5)CC4)nc23)c1 [III-413]
9.00	Cc1ccc(C(=O)Nc2cccc(C(C)(C)C)c2)cc1Nc1ncnc2cnc(N3CCN(CC4CCN(C)CC4)CC3)nc12 [III-416]
> 9.00	Cc1ccc(C(=O)Nc2cccc(C(F)(F)F)c2)cc1Nc1ncnc2cnc(N3CCN(CC4CCN(C)CC4)CC3)nc12 [III-417]
8.70	Cc1ccc(C(=O)Nc2cc(C(C)(C)C)n[nH]2)cc1Nc1ncnc2cnc(N3CCN(CC4CCN(C)CC4)CC3)nc12 [III-418]
9.00	Cc1ccc(C(=O)Nc2cc(C(C)(C)C)on2)cc1Nc1ncnc2cnc(N3CCN(CC4CCN(C)CC4)CC3)nc12 [III-420]
